In ChEMBL document CHEMBL4706660, “Structure-Activity Relationship and Biological Investigation of SR18292 (16), a Suppressor of Glucagon-Induced Glucose Production” (J Med Chem, 2021):
Calls of active or inactive are those of the source. The calls are words filed in the database; no cut-off is given here.

What was measured:
[1] = Inhibition of glucagon-induced glucose secretion in C57BL/6 mouse primary hepatocytes at 1 uM; type: functional; details: C57BL/6, Hepatocyte
[2] = Inhibition of NE-induced lipolysis in adipocytes (unknown origin) assessed as reduction in glycerol release at 1 uM pre-incubated for 30 mins before NE stimulation for 90 mins by glycerol reagent based assay relative to control; type: functional, Adipocyte; details: 2 h
[3] = biological target: Beta-2 adrenergic receptor (Homo sapiens, UniProt P07550); test: Binding affinity to beta2 adrenoceptor (unknown origin)
Sequence of Beta-2 adrenergic receptor (P07550 whole entry): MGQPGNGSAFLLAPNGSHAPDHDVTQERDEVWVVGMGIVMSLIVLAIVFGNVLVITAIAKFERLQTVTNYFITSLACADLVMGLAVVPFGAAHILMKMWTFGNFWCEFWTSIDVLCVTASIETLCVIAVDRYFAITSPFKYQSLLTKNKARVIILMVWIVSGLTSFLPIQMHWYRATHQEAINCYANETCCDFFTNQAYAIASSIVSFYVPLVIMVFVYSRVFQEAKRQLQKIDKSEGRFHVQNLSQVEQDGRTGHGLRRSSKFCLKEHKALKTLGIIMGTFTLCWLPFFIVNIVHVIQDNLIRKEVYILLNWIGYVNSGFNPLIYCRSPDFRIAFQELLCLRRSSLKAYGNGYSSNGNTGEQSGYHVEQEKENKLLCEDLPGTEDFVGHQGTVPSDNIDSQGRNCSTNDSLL

[4] = biological target: T1, 5-hydroxytryptamine receptor 1A (Homo sapiens, UniProt P08908); test: Binding affinity to 5HT1A receptor (unknown origin)
T1 sequence (P08908 whole entry): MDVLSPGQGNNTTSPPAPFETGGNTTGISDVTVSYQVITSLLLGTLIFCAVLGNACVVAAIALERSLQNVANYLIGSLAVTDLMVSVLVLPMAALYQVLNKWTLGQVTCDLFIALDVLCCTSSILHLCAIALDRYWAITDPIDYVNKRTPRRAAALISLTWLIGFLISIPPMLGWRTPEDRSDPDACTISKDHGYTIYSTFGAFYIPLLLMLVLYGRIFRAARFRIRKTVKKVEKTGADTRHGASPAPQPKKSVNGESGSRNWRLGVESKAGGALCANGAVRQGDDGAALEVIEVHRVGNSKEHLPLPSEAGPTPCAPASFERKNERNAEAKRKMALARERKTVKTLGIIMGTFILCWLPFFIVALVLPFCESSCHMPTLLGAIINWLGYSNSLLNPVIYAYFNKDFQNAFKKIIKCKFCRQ

Mus musculus [5] = test: In-vivo antagonist activity at beta-adrenergic receptor in fasted and HFD fed mouse assessed as inhibition of hormone-sensitive lipase phosphorylation in epididymal white adipose tissue at 50 mg/kg; type: functional, organism-based
Mus musculus [6] = test: In-vivo antagonist activity at beta-adrenergic receptor in fasted and HFD fed mouse assessed as increase in accumulation of liver glycogen at 50 mg/kg; type: functional, organism-based
Mus musculus [7] = test: Suppression of fasting blood glucose in overnight fasted ob/ob mouse 25 mg/kg, ip dosed 3 times and measured 3 hrs after last dose; type: functional, organism-based
Mus musculus [8] = test: In-vivo antagonist activity at beta-adrenergic receptor in fasted ob/ob mouse assessed as increase in accumulation of liver glycogen at 25 mg/kg; type: functional, organism-based
Mus musculus [9] = test: In-vivo antagonist activity at beta-adrenergic receptor in fasted ob/ob mouse assessed as inhibition of hormone-sensitive lipase phosphorylation in brown adipose tissue at 25 mg/kg
Adipocyte = test: Inhibition of NE-induced lipolysis in adipocytes (unknown origin) assessed as reduction in glycerol release at 1 to 10000 nM pre-incubated for 30 mins before NE stimulation for 90 mins by glycerol reagent based assay relative to control; type: functional, cell-based; details: dose 1-10000 nM, time 120.0 min

Row | SMILES | inhibition at 1 µM [1] [%] | inhibition ([2]; read-out: INH) [%] | also measured
1 | CC(C)(C)NCC(O)COc1cccc2[nH]ccc12 (stereo unspecified) | 53 | 73.2 | –
2 | Cc1ccc(CN(CC(O)CNc2cccc3cc[nH]c23)C(C)(C)C)cc1 (stereo unspecified) | 35.1 | 13.2 | –
3 | CC(C)(C)N(Cc1ccc(C#N)cc1)CC(O)COc1cccc2[nH]ccc12 (stereo unspecified) | 49.3 | 53.7 | –
4 | COC(COc1cccc2[nH]ccc12)CN(Cc1ccccc1C)C(C)(C)C (stereo unspecified) | 22.7 | 14.6 | –
5 | Cc1ccc(CN(CC(O)COc2cccc3[nH]ccc23)C2CC2)cc1 (stereo unspecified) | 37.8 | 11.6 | –
6 | Cc1ccc(CN(CC(O)CNc2ccc3[nH]ccc3c2)C(C)(C)C)cc1 (stereo unspecified) | 28.2 | 2.24 | –
7 | Cc1cccc(CN(CC(O)COc2cccc3[nH]ccc23)C(C)(C)C)c1 (stereo unspecified) | 62.6 | 40.4 | –
8 | COC(COc1cccc2[nH]ccc12)CN(Cc1ccc(C)cc1)C(C)(C)C (stereo unspecified) | 135 | -8.5 | –
9 | COC(COc1cccc2[nH]ccc12)CN(CC1CCCC1)C(C)(C)C (stereo unspecified) | 66.4 | 1 | –
10 | Cc1ccc(CN(CC(O)COc2ccncc2)C(C)(C)C)cc1 (stereo unspecified) | 41.4 | 31.5 | –
11 | Cc1ccc(CN(CC(O)COc2cccc3[nH]ccc23)C(C)(C)C)cc1 (stereo unspecified) | 57.7 | 25.8 | Ki [3]: 1300 nM; Ki [4]: 2100 nM; Activity (Mus musculus [5]): inactive; Activity (Mus musculus [6]): inactive; Activity (Mus musculus [7]): Active; Activity (Mus musculus [8]): inactive; Activity (Mus musculus [9]): inactive
12 | Cc1ccc(CN(CC(O)COc2ccc3[nH]ccc3c2)C(C)(C)C)cc1 (stereo unspecified) | 50.7 | 48.5 | –
13 | CC(=O)Nc1cccc(OCC(O)CN(Cc2ccc(C)cc2)C(C)(C)C)c1 (stereo unspecified) | 35.9 | 12.3 | –
14 | CC(C)(C)c1ccc(CN(CC(O)COc2cccc3[nH]ccc23)C(C)(C)C)cc1 (stereo unspecified) | 47.3 | 11.3 | inhibition (Adipocyte): inactive; Activity (Mus musculus [7]): Active; Activity (Mus musculus [8]): inactive; Activity (Mus musculus [9]): inactive
15 | Cc1ccc(CN(CC(O)COc2cccc3ccccc23)C(C)(C)C)cc1 (stereo unspecified) | -2.73 | 10.4 | –
16 | COc1ccc(CN(CC(O)COc2cccc3[nH]ccc23)C(C)(C)C)cc1 (stereo unspecified) | 30.1 | 58.3 | –
17 | Cc1ccc(CNCC(O)COc2cccc3[nH]ccc23)cc1 (stereo unspecified) | 34.5 | 40.6 | –
18 | CC(C)NCC(O)COc1cccc2ccccc12 (stereo unspecified) [PROPRANOLOL] | – | – | inhibition [2]: 92.4%
19 | CC(C)(C)N(CC(O)COc1cccc2[nH]ccc12)CC1CCCC1 (stereo unspecified) | 48.5 | 51.3 | –
20 | Cc1ccc(CN(CC(O)COc2cccc(C)c2)C(C)(C)C)cc1 (stereo unspecified) | 31.5 | 13.1 | –
21 | CC(C)(C)N(Cc1ccc(F)cc1)CC(O)COc1cccc2[nH]ccc12 (stereo unspecified) | 52.2 | 55.3 | –
22 | CN(C)c1ccc(CN(CC(O)COc2cccc3[nH]ccc23)C(C)(C)C)cc1 (stereo unspecified) | 35.3 | 65.2 | –
23 | Cc1ccc(CN(CC(O)COc2cccc3[nH]ccc23)C(C)C)cc1 (stereo unspecified) | 59.5 | 51.6 | –
24 | COC(COc1cccc2c1ccn2C)CN(Cc1ccc(C)cc1)C(C)(C)C (stereo unspecified) | 56.8 | 3.22 | –
25 | Cc1ccc(CN(CCCOc2cccc3[nH]ccc23)C(C)(C)C)cc1 | 28.3 | 9.91 | –
26 | Cc1ccc(CN(CC(O)COc2ccccc2)C(C)(C)C)cc1 (stereo unspecified) | 32.3 | 21.7 | –
27 | Cc1ccccc1CN(CC(O)COc1cccc2[nH]ccc12)C(C)(C)C (stereo unspecified) | 46 | 35.6 | –
28 | Cc1ccc(CN(CC(O)COc2cccc3c2ccn3C)C(C)(C)C)cc1 (stereo unspecified) | 47.7 | 36.7 | –
